From patent publication US6319702A, “Nucleic acids encoding mutant human carboxypeptidase A enzymes” (Glaxo Wellcome, Inc., priority 1993, dated 2001)
Where two headings read alike, the source gives them in different places.

Assay: Stability and biodistribution of prodrugs in vivo (HPLC of plasma and tissues)
Design: species or system mice (CD-1 nude; BALB/C where indicated)
Details: 50 mg/kg i.p. or i.v., CD-1 nude mice
[1] = mouse, cecum, 50 mg/kg, CECUM, 30 min, read-out: stability: percentage of material observed as intact prodrug, cecum
[2] = mouse, kidney, 50 mg/kg, KIDNEY, 30 min, read-out: stability: percentage of material observed as intact prodrug, kidney
[3] = mouse, large intestine, 50 mg/kg, LARGE INTESTINE, 30 min, read-out: stability: percentage of material observed as intact prodrug, large intestine
[4] = mouse, liver, 50 mg/kg, LIVER, 30 min, read-out: stability: percentage of material observed as intact prodrug, liver (converted)
[5] = mouse, plasma, 50 mg/kg, PLASMA, 30 min, read-out: concentration of prodrug in plasma
[6] = mouse, plasma, 50 mg/kg, PLASMA, 30 min, read-out: stability: percentage of material observed as intact prodrug, plasma
[7] = mouse, plasma, 50 mg/kg, PLASMA, 120 min, read-out: concentration of prodrug in plasma
[8] = mouse, plasma, 50 mg/kg, PLASMA, 120 min, read-out: stability: percentage of material observed as intact prodrug, plasma
[9] = mouse, small intestine, 50 mg/kg, SMALL INTESTINE, 30 min, read-out: stability: percentage of material observed as intact prodrug, small intestine
[10] = mouse, small intestine, 50 mg/kg, SMALL INTESTINE, 120 min, read-out: stability: percentage of material observed as intact prodrug, small intestine
[11] = mouse, tumor, 50 mg/kg, TUMOR, 30 min, read-out: stability: percentage of material observed as intact prodrug, tumor

Row | SMILES | concentration of prodrug in cecum (CECUM, 30 min) | concentration of prodrug in kidney (KIDNEY, 30 min) | concentration of prodrug in large intestine (LARGE INTESTINE, 30 min) | concentration of prodrug in liver (LIVER, 30 min) | concentration of prodrug in small intestine (SMALL INTESTINE, 30 min) | concentration of prodrug in small intestine (SMALL INTESTINE, 120 min) | concentration of prodrug in tumor (TUMOR, 30 min) | remaining at 0.5 h [1] | remaining at 0.5 h [2] | remaining at 0.5 h [3] | remaining at 0.5 h [4] | concentration at 0.5 h [5] | remaining at 0.5 h [6] | concentration at 2 h [7] | remaining at 2 h [8] | remaining at 0.5 h [9] | remaining at 2 h [10] | remaining at 0.5 h [11] | also measured
1 | Cc1nc2ccc3ccc(CNc4ccc5c(c4)CN([C@@H](CCC(=O)O)C(=O)N[C@@H](Cc4ccccc4)C(=O)O)C5=O)cc3c2c(=O)[nH]1 [Prodrug 2, N-((S)-4-carboxy-2-(5-(((1,2-dihydro-3-methyl-1-oxoxbenzo(F)quinazolin-9-yl)methyl)amino)-1-oxo-2-isoindolinyl)butanoyl)-L-phenylalanine] | 2.7 nmol/g | 9.0 nmol/g | 5.9 nmol/g | 42.0 nmol/g | 170.2 nmol/g | 17.6 nmol/g | 2.7 nmol/g | 96% | 96% | 93% | 96% | 33 µM | 100% | 0.3 µM | 93% | 91% | 47% | 98% | concentration of prodrug in kidney (KIDNEY, 90 min): 1.3 nmol/g; concentration of prodrug in kidney (KIDNEY, 180 min): 0.2 nmol/g; concentration of prodrug in large intestine (LARGE INTESTINE, 90 min): 0.7 nmol/g; concentration of prodrug in large intestine (LARGE INTESTINE, 180 min): 1.3 nmol/g; concentration of prodrug in liver (LIVER, 90 min): 9.1 nmol/g; concentration of prodrug in liver (LIVER, 180 min): 0.8 nmol/g; concentration (PLASMA, 30 min, 50 mg/kg, 30 min, read-out: concentration of prodrug in plasma): 22.1 µM; remaining at 1.5 h (mouse, kidney, 50 mg/kg, KIDNEY, 90 min, read-out: stability: percentage of material observed as intact prodrug, kidney): 98%; remaining at 3 h (mouse, kidney, 50 mg/kg, KIDNEY, 180 min, read-out: stability: percentage of material observed as intact prodrug, kidney): 100%; remaining at 1.5 h (mouse, large intestine, 50 mg/kg, LARGE INTESTINE, 90 min, read-out: stability: percentage of material observed as intact prodrug, large intestine): 60%; remaining at 3 h (mouse, large intestine, 50 mg/kg, LARGE INTESTINE, 180 min, read-out: stability: percentage of material observed as intact prodrug, large intestine): 52%; remaining at 1.5 h (mouse, liver, 50 mg/kg, LIVER, 90 min, read-out: stability: percentage of material observed as intact prodrug, liver): 100%; remaining at 3 h (mouse, liver, 50 mg/kg, LIVER, 180 min, read-out: stability: percentage of material observed as intact prodrug, liver): 100%; concentration at 1.5 h (mouse, plasma, 50 mg/kg, PLASMA, 90 min, read-out: concentration of prodrug in plasma): 5.5 µM; remaining at 1.5 h (mouse, plasma, 50 mg/kg, PLASMA, 90 min, read-out: stability: percentage of material observed as intact prodrug, plasma): 98%; concentration at 3 h (mouse, plasma, 50 mg/kg, PLASMA, 180 min, read-out: concentration of prodrug in plasma): 3.5 µM; remaining at 3 h (mouse, plasma, 50 mg/kg, PLASMA, 180 min, read-out: stability: percentage of material observed as intact prodrug, plasma): 97%
2 | CN(Cc1cnc2nc(N)nc(N)c2n1)c1ccc(C(=O)N[C@@H](CCC(=O)O)C(=O)N[C@@H](CC(=O)O)C(=O)O)cc1 [Prodrug 6] | 7.5 nmol/g | 93.4 nmol/g | 5.7 nmol/g | 287.8 nmol/g | 21.3 nmol/g | 14.2 nmol/g | 7.5 nmol/g | 82% | 98% | 100% | 97% | 46.7 µM | 100% | 2 µM | 100% | 86% | 54% | 82% | concentration of prodrug in cecum (CECUM, 120 min): 0.8 nmol/g; concentration of prodrug in feces (FECES, 30 min): 42 nmol/g; concentration of prodrug in feces (FECES, 120 min): 207 nmol/g; concentration of prodrug in kidney (KIDNEY, 120 min): 12.6 nmol/g; concentration of prodrug in large intestine (LARGE INTESTINE, 120 min): 19.4 nmol/g; concentration of prodrug in liver (LIVER, 120 min): 161.6 nmol/g; concentration of prodrug in spleen (SPLEEN, 30 min): 3.4 nmol/g; concentration of prodrug in spleen (SPLEEN, 120 min): 0.0 nmol/g; concentration of prodrug in tumor (TUMOR, 120 min): 0.8 nmol/g; remaining at 2 h (mouse, cecum, 50 mg/kg, CECUM, 120 min, read-out: stability: percentage of material observed as intact prodrug, cecum): 59%; remaining at 0.5 h (mouse, feces, 50 mg/kg, FECES, 30 min, read-out: stability: percentage of material observed as intact prodrug, feces (converted)): 21%; remaining at 2 h (mouse, feces, 50 mg/kg, FECES, 120 min, read-out: stability: percentage of material observed as intact prodrug, feces): 52%; remaining at 2 h (mouse, kidney, 50 mg/kg, KIDNEY, 120 min, read-out: stability: percentage of material observed as intact prodrug, kidney): 98%; remaining at 2 h (mouse, large intestine, 50 mg/kg, LARGE INTESTINE, 120 min, read-out: stability: percentage of material observed as intact prodrug, large intestine): 65%; remaining at 2 h (mouse, liver, 50 mg/kg, LIVER, 120 min, read-out: stability: percentage of material observed as intact prodrug, liver): 93%; remaining at 0.5 h (mouse, spleen, 50 mg/kg, SPLEEN, 30 min, read-out: stability: percentage of material observed as intact prodrug, spleen): 70%; remaining at 2 h (mouse, spleen, 50 mg/kg, SPLEEN, 120 min, read-out: stability: percentage of material observed as intact prodrug, spleen): 0%; remaining at 2 h (mouse, tumor, 50 mg/kg, TUMOR, 120 min, read-out: stability: percentage of material observed as intact prodrug, tumor): 59%
